Measured values reported in patent US7354925B2, “Alpha aryl or heteroaryl methyl beta piperidino propanamide compounds as ORL1-receptor antagonists” (Pfizer Inc., priority 2004, dated 2008).
Where a name gives a salt, the structure may show the parent alone.

How the values were obtained:
human ORL1 receptor = target: T1, human ORL1 receptor (Homo sapiens, UniProt P41146); test: ORL1-receptor binding assay; details: [3H]nociceptin, human ORL1 receptor transfected HEK-293 cell membranes; read-out: Ki value with regard to binding affinity for the ORL1 receptor
T1 construct: purchased PerkinElmer; host or cells: HEK-293 (transfected), membranes
Procedure: The human ORL1 receptor transfected HEK-293 cell membranes (PerkinElmer) were incubated for 45 min at room temperature with 0.4 nM [^3H]nociceptin, 1.0 mg of wheat germ agglutinin (WGA)-coated SPA beads and various concentrations of test compounds in a final volume of 200 μL of 50 mM HEPES buffer pH 7.4 containing 10 mM MgCl2 and 1 mM EDTA. Non-specific binding (NSB) was determined by the addition of 1 μM unlabeled nociceptin. After the reaction, the assay plate was centrifuged at 1,000 rpm for 1 min and then the radioactivity was measured by WALLAC 1450 MicroBeta Trilux.

[1] = target: T2, HERG type potassium channel (Homo sapiens, UniProt Q12809); assay type: binding
T2 construct: expressed in transfected cells; host or cells: HEK-293 cells expressing HERG; membrane homogenate
Procedure: Cell paste of HEK-293 cells expressing the HERG product can be suspended in 10-fold volume of 50 mM Tris buffer adjusted at pH 7.5 at 25° C. with 2 M HCl containing 1 mM MgCl2, 10 mM KCl. The cells were homogenized using a Polytron homogenizer (at the maximum power for 20 seconds) and centrifuged at 48,000 g for 20 min at 4° C. The pellet was resuspended, homogenized and centrifuged once more in the same manner. The resultant supernatant was discarded and the final pellet was resuspended (10-fold volume of 50 mM Tris buffer) and homogenized at the maximum power for 20 sec. The membrane homogenate was aliquoted and stored at −80° C. until use. Analiquot was used for protein concentration determination using a Protein Assay Rapid Kit and ARVO SX plate reader (Wallac). […] Saturation was determined by incubating 20 μL of [^3H]-dofetilide and 160 μl of membrane homogenates (20-30 μg protein per well) for 60 min at room temperature in the absence or presence of 10 μM dofetilide at final concentrations (20 μL) for total or nonspecific binding, respectively. […] Receptor-bound radioactivity was quantified by liquid scintillation counting using Packard LS counter.
For the competition assay, compounds were diluted in 96 well polypropylene plates as 4-point dilutions in semi-log format. […] Receptor-bound radio activity was quantified by counting Wallac MicroBeta plate counter.

T1 sequence (P41146 whole entry): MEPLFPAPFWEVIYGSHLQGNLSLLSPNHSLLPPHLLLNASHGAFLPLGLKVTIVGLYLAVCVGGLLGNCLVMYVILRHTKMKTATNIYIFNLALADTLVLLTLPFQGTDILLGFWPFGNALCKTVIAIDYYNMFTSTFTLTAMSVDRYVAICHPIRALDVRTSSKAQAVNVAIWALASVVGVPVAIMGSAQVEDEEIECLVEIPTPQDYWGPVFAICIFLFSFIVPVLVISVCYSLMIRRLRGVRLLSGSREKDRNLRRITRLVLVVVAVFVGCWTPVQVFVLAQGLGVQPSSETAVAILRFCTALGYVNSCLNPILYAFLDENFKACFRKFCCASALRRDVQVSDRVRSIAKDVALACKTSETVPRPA
T2 sequence (Q12809 whole entry): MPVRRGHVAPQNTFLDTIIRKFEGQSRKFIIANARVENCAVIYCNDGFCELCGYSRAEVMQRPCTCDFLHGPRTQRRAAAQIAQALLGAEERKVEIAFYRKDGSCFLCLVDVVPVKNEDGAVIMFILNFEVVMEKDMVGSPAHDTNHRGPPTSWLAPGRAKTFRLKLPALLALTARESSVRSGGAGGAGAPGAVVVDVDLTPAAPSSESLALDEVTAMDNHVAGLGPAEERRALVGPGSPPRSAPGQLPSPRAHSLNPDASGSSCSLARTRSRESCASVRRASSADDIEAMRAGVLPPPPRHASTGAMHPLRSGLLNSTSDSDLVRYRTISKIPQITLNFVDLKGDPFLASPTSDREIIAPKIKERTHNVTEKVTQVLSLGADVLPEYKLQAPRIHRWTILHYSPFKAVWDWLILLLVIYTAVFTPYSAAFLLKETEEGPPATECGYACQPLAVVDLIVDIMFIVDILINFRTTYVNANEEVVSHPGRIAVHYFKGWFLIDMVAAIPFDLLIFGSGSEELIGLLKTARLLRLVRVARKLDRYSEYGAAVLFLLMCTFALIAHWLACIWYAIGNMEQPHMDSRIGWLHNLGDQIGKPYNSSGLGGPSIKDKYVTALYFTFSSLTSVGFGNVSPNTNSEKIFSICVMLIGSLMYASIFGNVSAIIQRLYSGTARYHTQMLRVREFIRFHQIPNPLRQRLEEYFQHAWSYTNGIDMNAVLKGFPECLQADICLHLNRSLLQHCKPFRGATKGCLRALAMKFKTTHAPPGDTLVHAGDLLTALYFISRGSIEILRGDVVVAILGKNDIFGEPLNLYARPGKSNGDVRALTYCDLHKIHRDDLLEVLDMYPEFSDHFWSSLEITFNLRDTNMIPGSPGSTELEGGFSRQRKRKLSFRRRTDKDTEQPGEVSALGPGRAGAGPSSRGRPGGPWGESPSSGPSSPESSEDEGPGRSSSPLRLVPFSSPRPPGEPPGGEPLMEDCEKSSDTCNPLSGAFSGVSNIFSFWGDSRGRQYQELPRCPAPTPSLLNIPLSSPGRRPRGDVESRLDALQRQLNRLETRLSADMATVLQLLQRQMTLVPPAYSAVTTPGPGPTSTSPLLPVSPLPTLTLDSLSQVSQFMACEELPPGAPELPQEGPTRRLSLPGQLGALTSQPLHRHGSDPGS

SMILES | Ki (human ORL1 receptor) [nM] | activity in the dofetilide binding assay [1]
CN(C)C(=O)C(Cc1cscn1)CN1CCC2(CC1)OCc1ccc(F)cc12 (single isomer, unassigned; (-)) [Example 92, (−)-3-(6-FLUORO-1′H,3H-SPIRO[2-BENZOFURAN-1,4′-PIPERIDIN]-1′-YL)-N,N-DIMETHYL-2-(1,3-THIAZOL-4-YLMETHYL)P[…], CITRATE] | 5 | 
CN(C)C(=O)C(CN1CCC2(CC1)OCc1ccc(F)cc12)Cn1cccn1 (single isomer, unassigned; (-)) [Example 102, (−)-3-(6-FLUORO-1′H,3H-SPIRO[2-BENZOFURAN-1,4′-PIPERIDIN]-1′-YL)-N,N-DIMETHYL-2-(1H-PYRAZOL-1-YLMETHYL)P[…], CITRATE] | 12 | 
CN1C(=O)C(CN2CCC3(CCc4ccccc43)CC2)Cc2ccccc21 (stereo not drawn) [Compound (i)] |  | potent activity
